Data published in patent publication US10752900B2, “Oligonucleotides for modulating gene expression and uses thereof” (BIOGENERA S.P.A., priority 2012, dated 2020).

Legend:
MYCN gene = experiment: QT-PCR, MYCN mRNA in SKNBE2c cells; format: cell-based, human; conditions: Table 6
Protocol: For the purpose of assessing the ability of the oligonucleotides of the present invention to modulate the expression of the target genes, their ability to reduce the quantity of messenger RNA was analyzed using the Real-Time PCR technique. For this purpose, use was made of 24-well plates, which were seeded with 5.0×10^4 cells with 0.3 ml of OPTI-MEM (GIBCO BRL) medium, 4% FBS and 2 mM L-glutammine (experiments in triplicate) per well. The cells were incubated for 24 hours at 37° C., in an atmosphere containing 5% CO2 to permit adherence to the base of the wells. For each well, the oligonucleotides were analyzed at the following final concentrations: • the antisense oligonucleotides siRNA and siRNA gapmer (i.e. the oligonucleotides containing one or more monomers of chemically modified nucleic acids at the 3' or 5' end, while in the central portion they have monomers of nucleic acids that have not been modified or have been modified at the level of the phosphodiester bond as a phosphorothioate bond) were used at 200 nM; • the antisense oligonucleotides containing phosphorothioate DNA monomers, the RNA antigene oligonucleotides (agRNA) and the oligonucleotides containing DNA monomers and LNA monomers were used at 10 μM; • the morpholino oligonucleotides were used at a concentration of 1 μM, and • the PNA oligonucleotides were administered at a concentration of 1 μM. The cells were treated with the oligonucleotides, adding FBS up to 4% 6 hours after administration of the same. After 24 hours the total RNA was extracted from each well and purified using the RNeasy Mini Kit (QIAGEN). Assays were performed on 8 cell lines obtained from 5 different human tumours which are correlated with MYCN expression, i.e.: • as a neuroblastoma model use was made of the cell lines Kelly, IMR-32 (where the MYCN gene is amplified and superexpressed) and SKNBE2c and LAN1 (where the MYCN gene is amplified and superexpressed and the p53 gene is mutated); • as a rabdomiosarcoma model use was made of the cell line RH30, where the MYCN gene is amplified and superexpressed; • as a Wilms' tumour model use was made of the cell line WiT49, where the MYCN gene is amplified and superexpressed; • as a retinoblastoma model use was made of the cell line Y79, where the MYCN gene is amplified and superexpressed; and • as a model of small cell lung cancer use was made of the cell line H69 where the MYCN gene is amplified and superexpressed. As a control, use was made of the same cell lines as listed above treated with sterile water instead of oligonucleotides. Each RNA sample was quantified (in duplicate) using a NanoDrop ND-1000 spectrophotometer (NanoDrop Technologies). The first strand of cDNA was produced using the cDNA Synthesis Kit for RT-PCR (Roche). For the cDNA synthesis reaction a total of 1 μg of RNA was used. For the real-time PCR, 10 ng of cDNA in a final volume of 20 μl was used with SYBR Green Master Mix 2× (Applied Biosystems) (3 identical experiments were conducted in triplicate). Two housekeeping genes were used as positive controls: GAPDH and beta-actin (ACTB). The conditions of the QT-PCR reaction were: 10 min at 95° C., 20 sec at 95° C., and 30 sec at 60° C., for 50 cycles. The PNAs having SEQ ID NO: 1-12 were also tested on different cell lines which overexpress MYCN (Kelly, SKNBE2c, RH30, […] 1 and H69). The results are shown in Table 6 and confirm the selectivity and specificity of the inhibition effect of the PNAs on the product of protein translation of the MYCN gene.

WERI-Rb1 = experiment: Cellular proliferation assay (ATP-Lite), WERI-Rb1 cells; format: cell-based; conditions: Table 6
Protocol: For the purpose of assessing the gene modulation ability of the oligonucleotides of the present invention, the effect of their administration on cell viability was determined. For this purpose 5×10^3 cells per well were seeded into 96-well cell culture plates (experiments conducted in triplicate) with 100 μl of OPTI-MEM (GIBCO BRL) medium containing 4% FBS and 2 mM of L-glutammine. The PNA oligonucleotides were administered at different concentrations (1 μM-2.5 μM-5 μM-10 μM) in order to observe a dose-effect relationship. The viability of the treated cells was determined at 48, 72, 96 and 168 hours after treatment. Cell viability was assessed by means of an ATP-Lite assay (Luminescence ATP Detection Assay System, PerkinElmer) and is reported as the ratio between the average signal of the treated wells compared to the average value of the wells of untreated control cells. The cells were processed following the instructions provided with the kit. The assays were performed on the same cell lines used to determine the levels of the MYCN gene messenger and listed in the paragraph: Treatments with Oligonucleotides-QT-PCR. The PNAs having SEQ ID NO: 1-12 were also tested on different cell lines which overexpress MYCN (Kelly, SKNBE2c, RH30, […] 1 and H69). The results are shown in Table 6 and confirm the selectivity and specificity of the inhibition effect of the PNAs on the product of protein translation of the MYCN gene.

[1] = tested on: human and mouse neuroblastoma tumour cell lines (SMS-KAN, LAN 1, IMR-32, SMS-KCN, Kelly, NHO2A, SKNBE2c); format: cell-based

Substance	SKNBE2c % mRNA (MYCN gene) [%]	WERI-Rb1 % cell prol. (WERI-Rb1) [%]	effect in terms of inhibiting cell proliferation in combination with chemotherapeutic agents [1]
SEQ ID NO: 1: PNA ATGCCGGGCATGATCT against MYCN; subject of patent EP 1618195, control sequence used for comparison (all peptide nucleic acid (PNA)) [reference compound]	41	82	synergic effect
SEQ ID NO: 2: PNA antigene oligonucleotide GGGTGGATGCGGGGGG directed against MYCN (PNA backbone, chemistry not fully specified)	75	79	
SEQ ID NO: 3: PNA antigene oligonucleotide GATGCGGGGGGCTCCT directed against MYCN (PNA backbone, chemistry not fully specified)	68	78	
SEQ ID NO: 4: PNA antigene oligonucleotide GTCGGCGGGAGGTAAG directed against MYCN (PNA backbone, chemistry not fully specified)	60	79	
SEQ ID NO: 5: PNA antigene oligonucleotide GCTGGGTGGATGCGGG directed against MYCN (PNA backbone, chemistry not fully specified)	59	80	
SEQ ID NO: 6: PNA antigene oligonucleotide TGGACGCGCTGGGTGG directed against MYCN (PNA backbone, chemistry not fully specified)	62	80	
SEQ ID NO: 7: PNA antigene oligonucleotide CGCGCTGGGTGGATGC directed against MYCN (all peptide nucleic acid (PNA))	60	79	
SEQ ID NO: 8: PNA antigene oligonucleotide GTCTGGACGCGCTGGG directed against MYCN (all peptide nucleic acid (PNA))	62	78	
SEQ ID NO: 9: PNA antigene oligonucleotide CCCTGCAGTCGGCGGG directed against MYCN (all peptide nucleic acid (PNA))	58	79	
SEQ ID NO: 10: PNA antigene oligonucleotide CGGCCGCGGGCCGCCA directed against MYCN (PNA backbone, chemistry not fully specified)	41	85	
SEQ ID NO: 11: PNA antigene oligonucleotide GGGAACTGTGTTGGAG directed against MYCN (PNA backbone, chemistry not fully specified)	40	84	
SEQ ID NO: 12: PNA antigene oligonucleotide TGTCTGGACGCGCTGG directed against MYCN (all peptide nucleic acid (PNA))	40	84	
